Molecular target: T1, BTK (Homo sapiens, UniProt Q06187)
T1 construct: endogenous in cells; host or cells: TMD-8 cells
Assay: BTK degradation in TMD-8 cells, HTRF assay after 6 h treatment
Format: cell-based
Settings: for DC50: IC50 (DC50) of BTK degradation; for Dmax: TMD8, maximum percentage of inhibition (degradation)
Experimental: TMD-8 cells are treated with compounds diluted in 0.2% DMSO, dilution is done according to the following protocol: (1) make 500× stock solution in DMSO from 1 mM by 6-fold dilution, total 8 doses were included; (2) make 2× solution in cell culture medium by transferring 0.5 μl 500× stock solution into 125 μl medium; (3) 15 μl of 2× solution is added to cells and incubate for 6 h.
After 6 h treatment, add 10 μl 4×lysis buffer to each well; seal the plate and incubate 30 min at room temperature on a plate shaker; Once the cells are lysed, 16 μL of cell lysate are transferred to a PE 384-well HTRF detection plate; 4 μL of pre-mixed HTRF antibodies are added to each well; Cover the plate with a plate sealer, spin 1000 rpm for 1 min, Incubate overnight at room temperature; Read on BMG PheraStar with HTRF protocol (337 nm-665 nm-620 nm).
The IC50 (DC50) value of a compound can be obtained by fitting the following equation
Y=Bottom+(TOP−Bottom)/(1+((IC50/X)^hillslope))
Wherein, X and Y are known values, and IC50, Hillslope, Top and Bottom are the parameters obtained by fitting with software. Y is the inhibition percentage (calculated from the equation), X is the concentration of the compound; IC50 is the concentration of the compound when the 50% inhibition is reached. The smaller the IC50 value is, the stronger the inhibitory ability of the compound is. Vice versa, the higher the IC50 value is, the weaker the ability the inhibitory ability of the compound is; Hillslope represents the slope of the fitted curve, generally around 1*; Bottom represents the minimum value of the curve obtained by data fitting, which is generally 0%±20%; Top represents the maximum value of the curve obtained by data fitting, which is generally 100%±20%. The experimental data were fitted by calculating and analyzing with Dotmatics data analysis software.

T1 sequence (Q06187 whole entry): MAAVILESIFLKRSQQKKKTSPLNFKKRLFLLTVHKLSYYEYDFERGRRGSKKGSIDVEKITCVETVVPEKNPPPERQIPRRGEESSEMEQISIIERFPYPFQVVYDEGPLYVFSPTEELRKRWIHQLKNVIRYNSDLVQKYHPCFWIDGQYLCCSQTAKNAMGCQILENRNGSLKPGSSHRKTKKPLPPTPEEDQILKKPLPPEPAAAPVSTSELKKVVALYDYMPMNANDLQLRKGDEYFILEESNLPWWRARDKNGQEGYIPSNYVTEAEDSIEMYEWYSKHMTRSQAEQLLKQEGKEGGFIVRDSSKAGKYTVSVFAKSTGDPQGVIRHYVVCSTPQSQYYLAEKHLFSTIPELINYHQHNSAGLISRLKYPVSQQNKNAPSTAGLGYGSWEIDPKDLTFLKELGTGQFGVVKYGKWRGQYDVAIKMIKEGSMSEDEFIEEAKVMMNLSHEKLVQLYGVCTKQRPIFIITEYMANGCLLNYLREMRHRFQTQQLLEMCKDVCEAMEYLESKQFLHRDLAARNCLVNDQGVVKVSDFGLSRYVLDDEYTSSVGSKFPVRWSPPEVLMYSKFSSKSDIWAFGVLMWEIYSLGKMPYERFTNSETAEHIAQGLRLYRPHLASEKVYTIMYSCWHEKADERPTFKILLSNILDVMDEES

SMILES	DC50	Dmax
C[C@@H](NC(=O)c1noc(C(C)(C)C)n1)c1ccc(-c2n[nH]c3ncc(-c4ccc(N5CCN(CC6CCN(c7ccc(N8CCC(=O)NC8=O)cc7)CC6)CC5)nc4)cc23)cc1CO [Example 178, (R)-5-(tert-butyl)-N-(1-(4-(5-(6-(4-((1-(4-(2,4-dioxotetrahydropyrimidin-1(2H)-yl)phenyl)piperidin-4-yl)methyl)piperazin-1-yl)pyridin-3-yl)-1H-pyrazolo[3,4-b]pyridin-3-yl)-2-(hydroxymethyl)phenyl)ethyl)-1,2,4-oxadiazole-3-carboxamide]	6.81 nM	–
Cc1cc(-c2n[nH]c3ncc(-c4ccc(C5CCN(CCc6ccc(C7CCC(=O)NC7=O)c7c6CCCC7)CC5)cc4)cc23)ccc1CNC(=O)c1nc(C(C)(C)C)no1 (centres unmarked) [Example 26, 3-(tert-butyl)-N-(4-(5-(4-(1-(2-(4-(2,6-dioxopiperidin-3-yl)-5,6,7,8-tetrahydronaphthalen-1-yl)ethyl)piperidin-4-yl)phenyl)-1H-pyrazolo[3,4-b]pyridin-3-yl)-2-methylbenzyl)-1,2,4-oxadiazole-5-carboxamide]	28.9 nM	94.3%
CC(C)(C)c1nc(C(=O)NCc2ccc(-c3n[nH]c4ncc(-c5ccc(C6CCN(CC7CCN(c8ccc(N9CCC(=O)NC9=O)cc8)CC7)CC6)cc5)cc34)cc2F)no1 [Example 15, 5-(tert-butyl)-N-(4-(5-(4-(1-((1-(4-(2,4-dioxotetrahydropyrimidin-1(2H)-yl)phenyl)piperidin-4-yl)methyl)piperidin-4-yl)phenyl)-1H-pyrazolo[3,4-b]pyridin-3-yl)-2-fluorobenzyl)-1,2,4-oxadiazole-3-carboxamide]	6.38 nM	94.9%
Cc1cc(-c2n[nH]c3ncc(-c4ccc(N5CCN(CCc6ccc(C7CCC(=O)NC7=O)cc6)CC5)cc4)cc23)ccc1CNC(=O)c1cn(C(C)(C)C)nn1 (centres unmarked) [Example 108, 1-(tert-butyl)-N-(4-(5-(4-(4-(4-(2,6-dioxopiperidin-3-yl)phenethyl)piperazin-1-yl)phenyl)-1H-pyrazolo[3,4-b]pyridin-3-yl)-2-methylbenzyl)-1H-1,2,3-triazole-4-carboxamide]	4.13 nM	–
Cc1cc(-c2n[nH]c3ncc(-c4ccc(N5CCN(CCc6ccc7c(c6)C[C@]6(CC(=O)NC6=O)C7)CC5)cc4)cc23)ccc1[C@@H](C)NC(=O)c1nc(C(C)(C)C)no1 [Example 206, 3-(tert-butyl)-N—((R)-1-(4-(5-(4-(4-(2-((S)-2′,5′-dioxo-1,3-dihydrospiro[indene-2,3′-pyrrolidin]-5-yl)ethyl)piperazin-1-yl)phenyl)-1H-pyrazolo[3,4-b]pyridin-3-yl)-2-methylphenyl)ethyl)-1,2,4-oxadiazole-5-carboxamide]	> 2000 nM	–
Cc1cc(-c2n[nH]c3ncc(-c4ccc(CCN5CCC(c6ccc([C@H]7CCC(=O)NC7=O)cc6)CC5)cc4)cc23)ccc1CNC(=O)c1nc(C(C)(C)C)no1 [Example 89, (R)-3-(tert-butyl)-N-(4-(5-(4-(2-(4-(4-(2,6-dioxopiperidin-3-yl)phenyl)piperidin-1-yl)ethyl)phenyl)-1H-pyrazolo[3,4-b]pyridin-3-yl)-2-methylbenzyl)-1,2,4-oxadiazole-5-carboxamide]	0.635 nM	–
COc1cc(N2CCC(CCN3CCN(c4ccc(-c5cnc6[nH]nc(-c7ccc([C@@H](C)NC(=O)c8noc(C(C)(C)C)n8)c(C)c7)c6c5)cc4)CC3)CC2)ccc1C1CCC(=O)NC1=O (stereo partly drawn) [Example 169, 5-(tert-butyl)-N-((1R)-1-(4-(5-(4-(4-(2-(1-(4-(2,6-dioxopiperidin-3-yl)-3-methoxyphenyl)piperidin-4-yl)ethyl)piperazin-1-yl)phenyl)-1H-pyrazolo[3,4-b]pyridin-3-yl)-2-methylphenyl)ethyl)-1,2,4-oxadiazole-3-carboxamide]	15.1 nM	–
COc1cc(N2CCC(CCN3CCC(c4ccc(-c5cnc6[nH]nc(-c7ccc(CNC(=O)c8nc(C(C)(C)C)no8)c(C)c7)c6c5)cc4)CC3)CC2)ccc1N1CCC(=O)NC1=O [Example 28, 3-(tert-butyl)-N-(4-(5-(4-(1-(2-(1-(4-(2,4-dioxotetrahydropyrimidin-1(2H)-yl)-3-methoxyphenyl)piperidin-4-yl)ethyl)piperidin-4-yl)phenyl)-1H-pyrazolo[3,4-b]pyridin-3-yl)-2-methylbenzyl)-1,2,4-oxadiazole-5-carboxamide]	2.54 nM	97.1%
Cc1cc(-c2n[nH]c3ncc(-c4ccc(N5CCN(CCc6ccc([C@H]7CCC(=O)NC7=O)cc6)CC5)cc4)cc23)ccc1CNC(=O)c1cn(C(C)(C)C)nn1 [Example 150, (R)-1-(tert-butyl)-N-(4-(5-(4-(4-(4-(2,6-dioxopiperidin-3-yl)phenethyl)piperazin-1-yl)phenyl)-1H-pyrazolo[3,4-b]pyridin-3-yl)-2-methylbenzyl)-1H-1,2,3-triazole-4-carboxamide]	8.88 nM	–
Cc1cc(-c2n[nH]c3ncc(-c4ccc(CCN5CCN(c6ccc(N7CCC(=O)NC7=O)cc6)CC5)cc4)cc23)ccc1[C@@H](C)NC(=O)c1noc(C(C)(C)C)n1 [Example 128, (R)-5-(tert-butyl)-N-(1-(4-(5-(4-(2-(4-(4-(2,4-dioxotetrahydropyrimidin-1(2H)-yl)phenyl)piperazin-1-yl)ethyl)phenyl)-1H-pyrazolo[3,4-b]pyridin-3-yl)-2-methylphenyl)ethyl)-1,2,4-oxadiazole-3-carboxamide]	5.84 nM	–
Cc1cc(-c2n[nH]c3ncc(-c4ccc(C5CCN(CCCOc6ccc(NC7CCC(=O)NC7=O)c(C)c6)CC5)cc4)cc23)ccc1CNC(=O)c1nc(C(C)(C)C)no1 (centres unmarked) [Example 24, 3-(tert-butyl)-N-(4-(5-(4-(1-(3-(4-((2,6-dioxopiperidin-3-yl)amino)-3-methylphenoxy)propyl)piperidin-4-yl)phenyl)-1H-pyrazolo[3,4-b]pyridin-3-yl)-2-methylbenzyl)-1,2,4-oxadiazole-5-carboxamide]	4.62 nM	97.3%
CC(C)(C)c1noc(C(=O)NCc2ccc(-c3n[nH]c4ncc(-c5ccc(C6CCN(CCC7CCN(c8ccc(N9CCC(=O)NC9=O)c(F)c8)CC7)CC6)cc5)cc34)cc2F)n1 [Example 16, 3-(tert-butyl)-N-(4-(5-(4-(1-(2-(1-(4-(2,4-dioxotetrahydropyrimidin-1(2H)-yl)-3-fluorophenyl)piperidin-4-yl)ethyl)piperidin-4-yl)phenyl)-1H-pyrazolo[3,4-b]pyridin-3-yl)-2-fluorobenzyl)-1,2,4-oxadiazole-5-carboxamide]	9.04 nM	96.4%
Cc1cc(-c2n[nH]c3ncc(-c4ccc(CCN5CCC(c6ccc(C7CCC(=O)NC7=O)cc6)CC5)cc4)cc23)ccc1CNC(=O)c1noc(C(C)(C)C)n1 (centres unmarked) [Example 8, 3-(tert-butyl)-N-(4-(5-(4-(2-(4-(4-(2,6-dioxopiperidin-3-yl)phenyl)piperidin-1-yl)ethyl)phenyl)-1H-pyrazolol[3,4-b]pyridin-3-yl)-2-methylbenzyl)-1,2,4-oxadiazole-5-carboxamide]	1.4 nM	101%
Cc1cc(-c2n[nH]c3ncc(-c4ccc(N5CCN(CCc6ccc(N7CCC(=O)NC7=O)cc6)CC5)cn4)cc23)ccc1[C@@H](C)NC(=O)c1noc(C(C)(C)C)n1 [Example 122, (R)-5-(tert-butyl)-N-(1-(4-(5-(5-(4-(4-(2,4-dioxotetrahydropyrimidin-1(2H)-yl)phenethyl)piperazin-1-yl)pyridin-2-yl)-1H-pyrazolo[3,4-b]pyridin-3-yl)-2-methylphenyl)ethyl)-1,2,4-oxadiazole-3-carboxamide]	2.22 nM	–
Cc1cc(CCN2CCC(c3ccc(-c4cnc5[nH]nc(-c6ccc([C@@H](C)NC(=O)c7noc(C(C)(C)C)n7)c(C)c6)c5c4)nc3)CC2)ncc1C1CCC(=O)NC1=O (stereo partly drawn) [Example 145, 5-(tert-butyl)-N-((1R)-1-(4-(5-(5-(1-(2-(5-(2,6-dioxopiperidin-3-yl)-4-methylpyridin-2-yl)ethyl)piperidin-4-yl)pyridin-2-yl)-1H-pyrazolo[3,4-b]pyridin-3-yl)-2-methylphenyl)ethyl)-1,2,4-oxadiazole-3-carboxamide]	1.22 nM	–
Cc1cc(CCN2CCN(c3ccc(-c4cnc5[nH]nc(-c6ccc([C@@H](C)NC(=O)c7noc(C(C)(C)C)n7)c(C)c6F)c5c4)cc3)CC2)ncc1C1CCC(=O)NC1=O (stereo partly drawn) [Example 148, 5-(tert-butyl)-N-((1R)-1-(4-(5-(4-(4-(2-(5-(2,6-dioxopiperidin-3-yl)-4-methylpyridin-2-yl)ethyl)piperazin-1-yl)phenyl)-1H-pyrazolo[3,4-b]pyridin-3-yl)-3-fluoro-2-methylphenyl)ethyl)-1,2,4-oxadiazole-3-carboxamide]	1.84 nM	–
Cc1cc(-c2n[nH]c3ncc(-c4ccc(N5CCN(CCc6ccc(C7CCC(=O)NC7=O)cc6)CC5)cn4)cc23)ccc1[C@@H](C)NC(=O)c1noc(C(C)(C)C)n1 (stereo partly drawn) [Example 116, 5-(tert-butyl)-N-((1R)-1-(4-(5-(5-(4-(4-(2,6-dioxopiperidin-3-yl)phenethyl)piperazin-1-yl)pyridin-2-yl)-1H-pyrazolo[3,4-b]pyridin-3-yl)-2-methylphenyl)ethyl)-1,2,4-oxadiazole-3-carboxamide]	1.05 nM	–
